Data taken from the SangsterLogP compilation.

Tests used:
[1] = method code SF, from DOI: 10.1016/s0045-6535(97)00338-x
[2] = method code SF-AS, from DOI: 10.1007/s001289900104, PMID: 8661852
[3] = method code SF, from Huang, Q.; Wang, L.; Han, S.; Wang, G.; Gao, H. (1993). Quantitative relation between molecular structures and the hydrophobic parameters of halogenated arenes. Chemical Journal of Chinese …
[4] = method code SF, from DOI: 10.1248/yakushi1947.96.10_1169, PMID: 1033993; conditions: pH 0.7
[5] = method code SF-AS, from DOI: 10.1007/bf01648987
[6] = method code SF-AS, from DOI: 10.1002/em.2850200210, PMID: 1505530
[7] = method code SF-AS, from DOI: 10.1016/j.ejps.2010.09.003, PMID: 20854904
[8] = not given; remark: listed apart in the source
[9] = not given; remark: listed apart in the source
[10] = from Rich, R. (1990). Partition coefficients of quinones and their relation to biochemical reactivity. In Lenaz, G. (Ed.), Highlights in Ubiquinone Research: Proceedings of the International Symposium, …
[11] = method code SF-AS, from DOI: 10.1128/aac.27.1.84, PMID: 2580479
[12] = method code SF-AS, from DOI: 10.1016/j.bioorg.2006.09.003, PMID: 17078995; conditions: pH 7.4
[13] = not given; remark: listed apart in the source
[14] = method code SF-AS, from DOI: 10.1007/bf01964075; conditions: pH 2.1
[15] = method code SF-HPLC, from PMID: 1293941
[16] = not given; remark: listed apart in the source
[17] = not given; remark: listed apart in the source
[18] = method code SF-AS, from DOI: 10.1002/jps.2600630206, PMID: 4204981
[19] = not given; remark: listed apart in the source
[20] = method code SF-AS, from DOI: 10.1016/s0045-6535(98)00368-3; conditions: for logD: pH 2.0
[21] = method code SF-HPLC, from DOI: 10.1002/jps.10112, PMID: 12115830; conditions: pH 7.4

Compound `O=S(=O)(CBr)c1ccc(F)cc1` has a logP [1] of 1.74.
`COc1cccc([N+](=O)[O-])c1` gave a logP of 2.09.
Work on `Clc1nc(Cl)nc(Nc2ccccc2)n1` yielded a logP [2] of 3.03.
Compound `Brc1cc(Br)cc(Br)c1` has a logP [3] of 4.98.
In the case of `CCCC1(CC)C(=O)NC(=O)N(C)C1=O` (configuration not stated), the logD [4] is reported as 1.65.
Compound `Cc1cc(Cl)ccc1O` has a logP [5] of 2.78.
`O=[N+]([O-])c1ccc2ccccc2c1` showed a logP [6] of 3.24.
`O=C(CCN1CCCCC1)c1ccccc1` gave a logD ([7]; pH 10.0) of 2.4.
Compound `CN(C)CCC(=O)c1ccccc1` has a logD ([7]; pH 10.0) of 1.77.
In the case of `FC(F)(F)c1cccc(C2CNCCO2)c1` (configuration not stated), the logP [8] is reported as 2.18.
With `c1cn(C23CC4CC(CC(C4)C2)C3)cn1` the logP [9] was 2.9.
`Cc1cc(O)cc(C)c1O` gave a logP [10] of 1.
For `C=CCC1(CC=C)C(=O)NC(=O)N(C)C1=O`, the logD [4] was 1.55.
`CCN1CCN(C(=O)N[C@@H](C(=O)N[C@@H]2C(=O)N3[C@@H]2SC(C)(C)[C@@H]3C(=O)O)c2ccccc2)C(=O)C1=O` showed a logP [11] of 0.5.
In the case of `c1ccc(C2CNCCO2)cc1` (configuration not stated), the logP [8] is reported as 1.11.
For `CC(=O)OCCc1ccc(O)c(O)c1`, the logD [12] was 0.95.
`O=[N+]([O-])c1ccc2c(c1)Cc1cc([N+](=O)[O-])ccc1-2` gave a logP [6] of 3.35.
For `CCN(CC)CC`, the logP [13] was 1.36.
In the case of `CCCC(=O)OCCc1ccc(O)c(O)c1`, the logD [12] is reported as 1.77.
For `Cc1cc(O)ccc1O`, the logP [10] was 0.91.
For `CCN(CC)CCC(=O)c1ccccc1`, the logD ([7]; pH 10.0) was 1.59.
With `CNC(=O)[C@H](Cc1ccc(O)cc1)NC(C)=O` the logD [14] was -0.32.
With `CCCCCCCCOC(=O)c1ccc(N)cc1` the logP [15] was 5.02.
`O=C(O)CCCCCOc1cccc2ccccc12` showed a logP [16] of 4.5.
`Cc1ccc(OC(=O)C2OC(O)C(O)C(O)C2O)cc1` (configuration not stated) gave a logP [17] of 0.37.
Work on `O=C(Oc1ccccc1)C1OC(O)C(O)C(O)C1O` (configuration not stated) yielded a logP [17] of -0.69.
`c1ccc(CN2CCOCC2)cc1` showed a logP [8] of 1.58.
Compound `CC(C(=O)O)c1ccc(N2CC=CC2)c(Cl)c1` (configuration not stated) has a logP [13] of 3.58.
Work on `O=C(O)C1COc2ccccc2O1` (configuration not stated) yielded a logP [18] of 1.4.
Work on `COC(=O)CSc1ccc([N+](=O)[O-])cc1` yielded a logP [19] of 2.29.
In the case of `CC(=O)NC1CC1c1ccccc1` (configuration not stated), the logP [5] is reported as 1.43.
With `c1cnn(C23CC4CC(CC(C4)C2)C3)c1` the logP [9] was 3.05.
In the case of `O=C(O)C1Cc2cc(Cl)ccc2O1` (configuration not stated), the logP [18] is reported as 2.11.
In the case of `COc1cc(OC)nc(NC(=O)NS(=O)(=O)c2ccccc2Cl)n1`, the logD [20] is reported as 1.95.
For `O=[N+]([O-])c1ccc(Cl)cc1`, the logP was 2.45.
Compound `CCCC(C)C1(CC)C(=O)NC(=O)N(C)C1=O` (configuration not stated) has a logD [4] of 2.45.
Compound `CC1=CC(=O)C=C(C)C1=O` has a logP [10] of 0.95.
With `CC(=O)Nc1ccc(F)cc1F` the logP [1] was 1.5.
In the case of `COC(=O)CS(=O)c1ccc(Cl)cc1[N+](=O)[O-]` (configuration not stated), the logP [19] is reported as 1.69.
In the case of `CCN1CCN(C(=O)N[C@@H](C(=O)N[C@@H]2C(=O)N3C(C(=O)O)=C(CSc4nnnn4C)CS[C@H]23)c2ccc(O)cc2)C(=O)C1=O`, the logP [11] is reported as -0.74.
For `CN(c1ccccc1)c1nc(Cl)nc(Cl)n1`, the logP [2] was 3.07.
In the case of `O=[N+]([O-])c1cccc(Cl)c1`, the logP is reported as 2.59.
`COC(=O)CS(=O)c1ccc([N+](=O)[O-])cc1` (configuration not stated) gave a logP [19] of 0.98.
For `COC(=O)c1ccccc1S(=O)(=O)NC(=O)Nc1nc(OC)cc(OC)n1`, the logD [20] was 1.78.
With `O=C(CCNC1CCCCC1)c1ccccc1` the logD ([7]; pH 11.0) was 2.57.
With `CCCCCCOC(=O)c1ccc(N)cc1` the logP [15] was 3.95.
For `Fc1cccc(C2CNCCO2)c1` (configuration not stated), the logP [8] was 1.42.
In the case of `c1ccc2nn(C34CC5CC(CC(C5)C3)C4)nc2c1`, the logP [9] is reported as 4.3.
Compound `[N-]=[N+]=Nc1nc(N=[N+]=[N-])nc(Nc2ccccc2)n1` has a logP [2] of 3.88.
`CCC(=O)OCCc1ccc(O)c(O)c1` gave a logD [12] of 1.2.
`COC(=O)CS(=O)(=O)c1ccc([N+](=O)[O-])cc1` showed a logP [19] of 0.92.
`O=[N+]([O-])c1cccc2cccnc12` gave a logP [6] of 1.44.
`Oc1ccc(Br)cc1Br` showed a logP [5] of 3.48.
Work on `CN(C)Cc1ccccc1` yielded a logP [13] of 1.91.
`Nc1ccc(-c2ccc(N)cc2)cc1` gave a logP [13] of 1.53.
With `COC(=O)c1ccccc1S(=O)(=O)NC(=O)Nc1nc(C)cc(C)n1` the logP [16] was 1.3.
With `CN(C)c1ccccc1` the logP [5] was 2.29.
Compound `Cn1nnnc1SCC1=C(C(=O)O)N2C(=O)[C@@H](NC(=O)CSCC#N)[C@H]2SC1` has a logD ([11]; pH 2.0) of -0.62.
For `Clc1ccccc1Br`, the logP [3] was 3.83.
`CCOC(=O)/C=C/c1ccccc1` showed a logP [5] of 2.91.
For `CNC(=O)C1CCCN1C(C)=O` (configuration not stated), the logD [14] was -1.19.
Work on `Brc1ccc(Br)c(Br)c1` yielded a logP [3] of 4.98.
In the case of `CCCOC(=O)c1ccc(N)cc1`, the logP [15] is reported as 2.43.
In the case of `Clc1ncc(-c2ncncn2)c(Cl)n1`, the logP [2] is reported as 1.32.
Work on `CN(C)c1cccc([N+](=O)[O-])c1` yielded a logP of 2.16.
With `CCC1(CC)C(=O)NC(=O)N(C)C1=O` the logD [4] was 1.15.
For `COC(=O)c1ccccc1S(N)(=O)=O`, the logP [20] was 0.01.
With `c1ccc(CSSc2ncc[nH]2)cc1` the logD [21] was 3.05.
`COC(=O)c1ccccc1CS(N)(=O)=O` showed a logP [20] of 0.37.
In the case of `CCCC(=O)OCCc1ccc(O)c(OC)c1`, the logD [12] is reported as 2.54.
With `CNC(=O)[C@@H](NC(C)=O)C(C)C` the logD [14] was -0.35.
For `O=C(O)C1CCc2cc(Cl)ccc2O1` (configuration not stated), the logP [18] was 2.4.
`CC[C@H](C)[C@H](NC(C)=O)C(=O)NC` showed a logD [14] of 0.14.
With `c1ccc2c(c1)cnn2C12CC3CC(CC(C3)C1)C2` the logP [9] was 4.33.
For `O=[N+]([O-])c1cc(F)ccc1O`, the logP [1] was 1.88.
`O=[N+]([O-])c1ccccc1Br` showed a logP of 2.5.
With `O=C(Oc1ccc(-c2ccccc2)cc1)C1OC(O)C(O)C(O)C1O` (configuration not stated) the logP [17] was 1.79.
For `CC(=O)Oc1ccc(F)cc1`, the logP [1] was 1.41.
Work on `O=C(O)CCCOc1cccc2ccccc12` yielded a logP [16] of 3.5.
Compound `CCCCCOC(=O)c1ccc(N)cc1` has a logP [15] of 3.48.
Compound `COc1ccc(OC(=O)C2OC(O)C(O)C(O)C2O)cc1` (configuration not stated) has a logP [17] of -0.01.
`Cc1cc(CCO)ccc1O` showed a logD [12] of 0.5.
With `Brc1cccc(Br)c1Br` the logP [3] was 4.98.
With `CC(C)N1CCOC(c2ccccc2)C1` (configuration not stated) the logP [8] was 2.3.
`O=[N+]([O-])c1c(O)nc(-c2ncncn2)nc1O` gave a logP [2] of 2.02.
`O=C1c2cc([N+](=O)[O-])ccc2-c2ccc([N+](=O)[O-])cc21` showed a logP [6] of 2.84.
Work on `CCn1ccc(NS(=O)(=O)c2ccc(N)cc2)nc1=O` yielded a logP [13] of -0.2.
For `NS(=O)(=O)c1ccccc1Cl`, the logP [20] was 0.79.
Work on `Cc1c(O)ccc(O)c1C` yielded a logP [10] of 1.36.
`CCSSc1ncc[nH]1` gave a logD [21] of 2.13.
`CCC1(CCC(C)C)C(=O)NC(=O)N(C)C1=O` (configuration not stated) showed a logD [4] of 2.45.
`Clc1cccc(Br)c1` gave a logP [3] of 3.83.
With `OCCOc1cccc2ccccc12` the logP [16] was 2.5.
In the case of `Oc1cccc(O)c1`, the logD [14] is reported as 0.83.
Compound `COC(=O)CS(=O)c1ccccc1[N+](=O)[O-]` (configuration not stated) has a logP [19] of 0.98.
In the case of `O=C(Oc1ccc2cc(Br)ccc2c1)C1OC(O)C(O)C(O)C1O` (configuration not stated), the logP [17] is reported as 1.97.
Work on `CCCCCCCOC(=O)c1ccc(N)cc1` yielded a logP [15] of 4.5.
For `O=C(O)COc1ccc(F)cc1`, the logD ([1]; pH 2.0) was 1.57.
For `Cc1c(C)c(O)c(C)c(C)c1O`, the logP [10] was 1.8.
`CC(Oc1ccc(Cl)cc1)C(=O)O` (configuration not stated) gave a logP [18] of 2.31.
In the case of `c1ccc2c(c1)ncn2C12CC3CC(CC(C3)C1)C2`, the logP [9] is reported as 3.64.
`O=C1CC(C(=O)O)Oc2ccc(Cl)cc21` (configuration not stated) showed a logP [18] of 1.77.
`CC(=O)OCC1=C(C(=O)O)N2C(=O)[C@@H](NC(=O)CC#N)[C@H]2SC1` showed a logP [11] of -0.45.
`O=C(O)CCCCOc1cccc2ccccc12` showed a logP [16] of 4.
In the case of `O=[N+]([O-])c1cccc2c([N+](=O)[O-])cccc12`, the logP [6] is reported as 2.58.
Work on `O=C(CCN1CCCC1)c1ccccc1` yielded a logD ([7]; pH 10.0) of 1.91.
Compound `CO[C@@]1(NC(=O)Cc2cccs2)C(=O)N2C(C(=O)O)=C(COC(N)=O)CS[C@@H]21` has a logP [11] of -0.02.
